Assay results: patent publication US12691124B2, “Methods of controlling and improving brain health” (ICAHN SCHOOL OF MEDICINE AT MOUNT SINAI, priority 2019, dated 2026)

Key:
primary cortical neurons = assay: Axion multielectrode array recording of neuronal firing; format: cell-based, mouse
Procedure: Axion Recordings. A 48-well multielectrode array plate (Axion) was coated with 0.1% PEI for 1 hour at 37 degrees and washed four times with deionized water. Plates were dried overnight at room temperature in a sterile hood. Plates were incubated with 20 ug/ml laminin for one hour at 37 degrees before cells were seeded onto the plate. Primary cortical neurons were plated 50,000 per well. Plates were equilibrated on the Axion Maestro system at 37 degrees C. for 5 minutes before each 10 minute recording session. Baseline activity was recorded at day 7 before cells were treated with either I-BET858 (1 um) or DMSO. Electrical activity was recorded every day until day 21 and then at regular intervals until activity was no longer detected.
Therefore to determine the effect of chronic BET inhibition on electrical activity, neurons were cultured on the Axion Microelectrode array system in the presence of IBET858. Primary cortical neurons first show electrical activity at day 7 which gradually increases over time, peaking around day 14 consistent with published time courses of synaptogenesis and electrical activity in vitro. […] In one experiment, IBET858 treated neurons lived until day 77, 86% longer than control neurons.
One could argue that the protective effect of IBET858 was caused by a decreased sensing of glutamate levels. […] To further explore this hypothesis, neuronal firing in response to a sub-lethal dose of glutamate (50 μM) was measured using the Axion system (FIG. 10A). At day 14, neurons treated with 50 μM glutamate increased their firing rate 127.4+/−44.4% compared to baseline. […] Therefore, it is appropriate to use glutamate as a neuronal death assay.

BRD2 = biological target: T1, BRD2 (Mus musculus, UniProt Q7JJ13); assay: ChIP sequencing of BRD2 chromatin occupancy in neurons; format: cell-based
T1 construct: Primary cortical neurons express BRD2/3/4, with BRD2 and BRD4 being the most abundant; endogenous in cells; host or cells: primary cortical neuronal cultures (mouse)
Procedure: Chromatin Immunoprecipitation with Sequencing. Primary cortical neuronal cultures were washed once with PBS then fixed for 10 minutes with a 1% formaldehyde solution in PBS with protease inhibitors (Sigma #P8340) at room temperature. Fixation was quenched adding glycine to a final concentration of 0.125M (5 minutes, room temperature). 10e6 fixed cells were resuspended in 1 ml of lysis buffer (50 mM Hepes KOH, pH7.5, 140 mM NaCl, 1 mM EDTA, 10% glycerol, 0.5% NP-40, 0.25% Triton X-100) and 10 ul of protease inhibitor cocktail (PIC). Samples were rotated for 10 minutes at 4 degrees then spun at 1350 g at 4 C for 10 minutes. Pellets were resuspended in 1 ml of lysis buffer 2 (10 mM Tris-HCl pH8.0, 200 mM NaCl, 1 mM EDTA, 0.5 mM EGTA) and 10 ul PIC.). 5e6 nuclei were sonicated in lysis buffer 3 (10 mM Tris-HCl pH8.0, 100 mM NaCl, 1 mM EDTA, 0.5 mM EGTA, 0.1% Na-Deoxicholate, 0.5% N-Lauroylsarcosine) at 4 degrees for 5 cycles of 30 seconds ON/30 seconds OFF using the Diagenode bioruptor. After, 30 ul of 10% Triton-X100 was added to each sample and then spun for 15 minutes at 20,000 g at 4 degrees. Sonication efficiency was checked by running the samples on a 2% agarose gel to confirm enrichment for fragments from 200-500 bps.
Streptavidin M-280 dynabeads were blocked with 0.5% BSA solution and coupled to 7 ug of antibody (Brd4 #Ab84778, Brd2 Bethyl #A302-583A, Pol2 Ser5 #Ab5408) for at least 8 hours at 4 degrees, rotating. Antibody-coupled beads were then added to sonicated chromatin (20e6 cells for Brd2/Brd4, 10e6 for Pol2) and incubated overnight at 4 degrees. After washing the IPs eight times with wash buffer (50 mM Hepes-KOH pH7.6, 100 mM LiCl, 1 mM EDTA, 1% NP-40, 0.7% Na-Deoxycholate) and once with TE buffer (10 mM Tris-HCl, 1 mM EDTA, 50 mM NaCl), Chromatin was eluted from magnetic beads in 200 ul elution buffer ([…] Tris-HCl pH8.0, 10 mM EDTA, 1% SDS) for 45 minutes at 65 degrees. Samples were de-crosslinked overnight at 65 degrees and proteins and RNA were removed by incubating with RNAse and proteinase k. Samples were purified using the Qiagen PCR purification kit according to the manufacturers protocol.
Samples were end-repaired using the End-IT DNA End-Repair Kit (#ER0720). After 45 minutes incubation, samples were purified using the Qiagen PCR Clean up kit as described above. Samples were adenylated using a reaction mix (200 uM dATP, 1× Klenow buffer NEB2, Klenow Fragment (3′ to 5′ exo-), NEB M0212L) and incubating at 37 degrees for 30 minutes. […] Raw sequencing reads were then aligned to the mouse mm9 genome using the default settings of Bowtie (v2.2.0)87. Only uniquely mapped reads were retained, and the alignments were subsequently filtered using the SAMtools package (v0.1.19)88 to remove duplicate reads. […]

T1 sequence (Q7JJ13 whole entry): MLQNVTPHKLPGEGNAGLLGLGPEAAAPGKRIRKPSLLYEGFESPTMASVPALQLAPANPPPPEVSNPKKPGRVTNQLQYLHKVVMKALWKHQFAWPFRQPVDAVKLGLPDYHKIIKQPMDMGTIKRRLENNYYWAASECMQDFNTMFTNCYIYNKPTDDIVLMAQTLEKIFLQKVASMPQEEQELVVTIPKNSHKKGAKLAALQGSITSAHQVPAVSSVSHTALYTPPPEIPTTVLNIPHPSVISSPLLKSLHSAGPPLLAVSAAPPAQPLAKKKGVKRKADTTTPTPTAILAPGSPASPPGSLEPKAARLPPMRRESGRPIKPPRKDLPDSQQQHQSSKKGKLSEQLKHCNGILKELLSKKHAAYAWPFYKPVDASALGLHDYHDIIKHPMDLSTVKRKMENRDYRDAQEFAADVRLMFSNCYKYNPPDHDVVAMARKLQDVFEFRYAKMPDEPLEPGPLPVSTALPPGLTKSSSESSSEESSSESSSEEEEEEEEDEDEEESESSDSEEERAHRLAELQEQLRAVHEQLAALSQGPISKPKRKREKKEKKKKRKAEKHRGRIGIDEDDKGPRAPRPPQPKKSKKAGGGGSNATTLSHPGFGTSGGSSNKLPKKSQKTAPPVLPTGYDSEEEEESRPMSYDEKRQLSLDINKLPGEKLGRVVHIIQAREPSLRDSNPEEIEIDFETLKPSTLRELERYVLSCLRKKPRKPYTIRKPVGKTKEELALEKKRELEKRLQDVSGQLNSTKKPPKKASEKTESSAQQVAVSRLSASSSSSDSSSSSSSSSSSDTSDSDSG

CC(=O)N1c2ccc(-c3ccc(CN4CCCCC4)cc3)cc2[C@H](Nc2ccccc2)CC1C (stereo in doubt) [IBET858]
day until which neurons lived, one experiment (primary cortical neurons; 1 μM): 77 days
lifetime longer than control neurons, one experiment (primary cortical neurons; 1 μM): 86%
neuronal survival (firing) after washout (primary cortical neurons; 1 uM for 1 week followed by washout at day 14): prolonged neuronal survival that is maintained even in the absence of IBET
activity patterns of long-lived treated neurons (primary cortical neurons; 1 uM from day 7): maintain normal activity patterns
day until which neurons continued to fire (primary cortical neurons; 1 μM, control ceased firing on average at day 29): 45 days
increase in firing rate compared to baseline after glutamate (primary cortical neurons; 50 μM glutamate, day 14, control 127.4+/−44.4%): 129.3+/−26.2%
genes that lose BRD2 at the transcriptional start site (BRD2; 6 h IBET858): 1497 genes
genes with gain of BRD2 at the transcriptional start site (BRD2; 6 h IBET858): 828 genes
loci with reduced occupancy of BRD2 (BRD2; DIV7, 6 h IBET858): 2099 loci
loci with increased occupancy of BRD2 (BRD2; day 7, 6 h IBET858): 1680 loci
